Test: recombinant barcode read abundance after kanamycin selection (control-corrected) (log10(CPM+1)); higher = more efficient recombination; sequences stand for … in AGTGCAGAGAAAATCGGCCAGTTTTCTCTGCCTGCAGTCCGCATGCCGT…AGATTTATGCAGCGGACTGCCTTTCTCCCAAAGTGATAAACCGGACAGTATCATGGACCGGTTTTCCCGGTAATCCGTATTTGCAAGGTTGGTTTCACT; site = the 11-nt target
How it was run: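 In a pooled screen in E. coli, targets were paired with target-binding loops of the IS621 bridge RNA. Each oligo carried a promoter, a target, a barcode and the first 104 bridge RNA bases driven by J23119, and was Gibson-cloned into a vector holding the remaining 73 bp and a T7-inducible recombinase before co-electroporation with a donor plasmid. Duplicate platings went onto chloramphenicol/ampicillin LB agar as the control or onto chloramphenicol/ampicillin/kanamycin with 0.1 mM IPTG. Recombination efficiency is the averaged, control-corrected count per million of barcodes at recombinant junctions, given as log10(CPM+1).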
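Further: IS621 recombinase and bridge RNA in Escherichia coli cells.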

| Sequence | recombinant barcode read abundance (log10) |
| --- | --- |
| TGGAGCCCTTGGGTTCTAACCTGTTGCAG (site TGGAGCCCTAT) | 0.13 |
| TGGAGCCCTTGGGTTCTAACCTGTTGCAG (site TGGAGCCCTCT) | 0.484 |
| TGGAGCCCTTGGGTTCTAACCTGTTGCAG (site TGGAGCCCTGT) | 0.336 |
| TGGAGCCCTTGGGTTCTAACCTGTTGCAG (site TGGAGCCCTTT) | 0.0206 |
| TGGAGTACTTGGGTTCTAACCTGTTGCCT (site TGGAGTACTAG) | 0.874 |
| TGGAGTACTTGGGTTCTAACCTGTTGCCT (site TGGCGTACTAG) | 0.0846 |
| TGGAGTACTTGGGTTCTAACCTGTTGCCT (site TGGGGTACTAG) | 0.146 |
| TGGAGTACTTGGGTTCTAACCTGTTGCCT (site TGGTGTACTAG) | 0 |
| TGGAGTCCTTGGGTTCTAACCTGTTGCCT (site TGGAGTCCTAG) | 1.11 |
| TGGAGTCCTTGGGTTCTAACCTGTTGCCT (site TGGCGTCCTAG) | 0.0977 |
| TGGAGTCCTTGGGTTCTAACCTGTTGCCT (site TGGGGTCCTAG) | 0.548 |
| TGGAGTCCTTGGGTTCTAACCTGTTGCCT (site TGGTGTCCTAG) | 0.0821 |
| TGGATGGCTTGGGTTCTAACCTGTTGCCT (site GGGATGGCTAG) | 0.149 |
| TGGATGGCTTGGGTTCTAACCTGTTGCCT (site TGGATGGCTAG) | 0.17 |
| TGGCAGGCTTGGGTTCTAACCTGTTGCCT (site TGGCAGACTAG) | 0.0119 |
| TGGCAGGCTTGGGTTCTAACCTGTTGCCT (site TGGCAGCCTAG) | 0.00869 |
| TGGCAGGCTTGGGTTCTAACCTGTTGCCT (site TGGCAGGCTAG) | 0.64 |
| TGGCAGGCTTGGGTTCTAACCTGTTGCCT (site TGGCAGTCTAG) | 0.0352 |
| TGGCAGTCTTGGGTTCTAACCTGTTGCCT (site TGGCAGACTAG) | 0.207 |
| TGGCAGTCTTGGGTTCTAACCTGTTGCCT (site TGGCAGCCTAG) | 0.0447 |
| TGGCAGTCTTGGGTTCTAACCTGTTGCCT (site TGGCAGGCTAG) | 0.272 |
| TGGCAGTCTTGGGTTCTAACCTGTTGCCT (site TGGCAGTCTAG) | 0.413 |

| Sequence | recombinant barcode read abundance (log10) |
| --- | --- |
| TGGCATCCTTGGGTTCTAACCTGTTGCGT (site AACAGGGCTCG) | 0.0723 |
| TGGCATCCTTGGGTTCTAACCTGTTGCGT (site TGGCATCCTAC) | 2.53 |
| TGGCCACCTTGGGTTCTAACCTGTTGCCT (site CGGCCACCTAG) | 0.115 |
| TGGCCACCTTGGGTTCTAACCTGTTGCCT (site TGGCCACCTAG) | 1.6 |
| TGGCCCTCTTGGGTTCTAACCTGTTGCTT (site TGGCCCTCTAA) | 1.63 |
| TGGCCCTCTTGGGTTCTAACCTGTTGCTT (site TGGCCCTCTCA) | 0.293 |
| TGGCCCTCTTGGGTTCTAACCTGTTGCTT (site TGGCCCTCTGA) | 0.52 |
| TGGCCCTCTTGGGTTCTAACCTGTTGCTT (site TGGCCCTCTTA) | 0.056 |
| TGGCCGACTTGGGTTCTAACCTGTTGCAC (site TCGCAGACTGT) | 0.0415 |
| TGGCCGACTTGGGTTCTAACCTGTTGCAC (site TGGCCGACTGT) | 1.65 |
| TGGCCTGCTTGGGTTCTAACCTGTTGCCT (site TGGCCTGCTAG) | 0.868 |
| TGGCCTGCTTGGGTTCTAACCTGTTGCCT (site TGGCGAGCTAG) | 0.176 |
| TGGCTAGCTTGGGTTCTAACCTGTTGCAC (site CATTCGCCTAC) | 0.0401 |
| TGGCTAGCTTGGGTTCTAACCTGTTGCAC (site TGGCTAGCTGT) | 1.77 |
| TGGGACACTTGGGTTCTAACCTGTTGCCG (site AGGGACTCTCG) | 0.403 |
| TGGGACACTTGGGTTCTAACCTGTTGCCG (site TGGGACACTCG) | 2.48 |
| TGGGTCACTTGGGTTCTAACCTGTTGCTA (site GTTTAATCTAT) | 0.0621 |
| TGGGTCACTTGGGTTCTAACCTGTTGCTA (site TGGGTCACTTA) | 2.07 |
| TGGGTCCCTTGGGTTCTAACCTGTTGCGA (site AAATGTACTAG) | 0.252 |
| TGGGTCCCTTGGGTTCTAACCTGTTGCGA (site TGGGTCCCTTC) | 3 |
| TGGTATCCTTGGGTTCTAACCTGTTGCCT (site TGGTATACTAG) | 0.15 |
| TGGTATCCTTGGGTTCTAACCTGTTGCCT (site TGGTATCCTAG) | 0.954 |

| Sequence | recombinant barcode read abundance (log10) |
| --- | --- |
| TGGTATCCTTGGGTTCTAACCTGTTGCCT (site TGGTATGCTAG) | 0.396 |
| TGGTATCCTTGGGTTCTAACCTGTTGCCT (site TGGTATTCTAG) | 0.358 |
| TGGTCGGCTTGGGTTCTAACCTGTTGCAC (site TAGTCAGCTGT) | 0.0913 |
| TGGTCGGCTTGGGTTCTAACCTGTTGCAC (site TGGTCGGCTGT) | 0.385 |
| TGGTGCGCTTGGGTTCTAACCTGTTGCCT (site TGGTACGCTAG) | 0.33 |
| TGGTGCGCTTGGGTTCTAACCTGTTGCCT (site TGGTCCGCTAG) | 0.324 |
| TGGTGCGCTTGGGTTCTAACCTGTTGCCT (site TGGTGCGCTAG) | 1.21 |
| TGGTGCGCTTGGGTTCTAACCTGTTGCCT (site TGGTTCGCTAG) | 0.0427 |
| TGGTGTCCTTGGGTTCTAACCTGTTGCCA (site TCGAGTCCTTG) | 0.0738 |
| TGGTGTCCTTGGGTTCTAACCTGTTGCCA (site TGGTGTCCTTG) | 0.473 |
| TGGTGTCCTTGGGTTCTAACCTGTTGCCT (site TGGAGTCCTAG) | 0.32 |
| TGGTGTCCTTGGGTTCTAACCTGTTGCCT (site TGGCGTCCTAG) | 0.279 |
| TGGTGTCCTTGGGTTCTAACCTGTTGCCT (site TGGGGTCCTAG) | 0.158 |
| TGGTGTCCTTGGGTTCTAACCTGTTGCCT (site TGGTGTCCTAG) | 1.58 |
| TGGTTACCTTGGGTTCTAACCTGTTGCGG (site CACACGACTAA) | 0.0374 |
| TGGTTACCTTGGGTTCTAACCTGTTGCGG (site TGGTTACCTCC) | 1.49 |
| TGGTTGTCTTGGGTTCTAACCTGTTGCCT (site TGGCTGTCTAG) | 0.522 |
| TGGTTGTCTTGGGTTCTAACCTGTTGCCT (site TGGTTGTCTAG) | 1.09 |
| TGTACGACTTGGGTTCTAACCTGTTGCCT (site TGTACGACTAG) | 0.146 |
| TGTACGACTTGGGTTCTAACCTGTTGCCT (site TGTACGTCTAA) | 0.0793 |
| TGTACGACTTGGGTTCTAACCTGTTGCGG (site GAGTGTTCTAA) | 0.0347 |
| TGTACGACTTGGGTTCTAACCTGTTGCGG (site TGTACGACTCC) | 0.7 |

| Sequence | recombinant barcode read abundance (log10) |
| --- | --- |
| TGTAGTACTTGGGTTCTAACCTGTTGCCT (site TGGAGTACTAA) | 0.0714 |
| TGTAGTACTTGGGTTCTAACCTGTTGCCT (site TGTAGTACTAG) | 0.229 |
| TGTATGACTTGGGTTCTAACCTGTTGCCT (site AGTATGACTAG) | 0.65 |
| TGTATGACTTGGGTTCTAACCTGTTGCCT (site CGTATGACTAG) | 0.0259 |
| TGTATGACTTGGGTTCTAACCTGTTGCCT (site GGTATGACTAG) | 0.263 |
| TGTATGACTTGGGTTCTAACCTGTTGCCT (site TGTATGACTAG) | 0.46 |
| TGTATGTCTTGGGTTCTAACCTGTTGCCT (site AGTATGTCTAG) | 0.0212 |
| TGTATGTCTTGGGTTCTAACCTGTTGCCT (site CGTATGTCTAG) | 0.529 |
| TGTATGTCTTGGGTTCTAACCTGTTGCCT (site GGTATGTCTAG) | 0.402 |
| TGTATGTCTTGGGTTCTAACCTGTTGCCT (site TGTATGTCTAG) | 0.0364 |
| TGTCAACCTTGGGTTCTAACCTGTTGCGT (site TGTCAAACTAC) | 0.0902 |
| TGTCAACCTTGGGTTCTAACCTGTTGCGT (site TGTCAACCTAC) | 1.02 |
| TGTCAAGCTTGGGTTCTAACCTGTTGCCT (site TGTCAAACTAG) | 0.574 |
| TGTCAAGCTTGGGTTCTAACCTGTTGCCT (site TGTCAACCTAG) | 0.045 |
| TGTCAAGCTTGGGTTCTAACCTGTTGCCT (site TGTCAAGCTAG) | 0.46 |
| TGTCAAGCTTGGGTTCTAACCTGTTGCCT (site TGTCAATCTAG) | 0.295 |
| TGTCCACCTTGGGTTCTAACCTGTTGCCT (site AGTCCACCTAG) | 0.0595 |
| TGTCCACCTTGGGTTCTAACCTGTTGCCT (site CGTCCACCTAG) | 0.267 |
| TGTCCACCTTGGGTTCTAACCTGTTGCCT (site GGTCCACCTAG) | 0.165 |
| TGTCCACCTTGGGTTCTAACCTGTTGCCT (site TGTCCACCTAG) | 0.623 |

— the supplement of paper PMC11208160
